Test results: patent US20250195513A1, “DEGRADATION OF IRAK4 BY CONJUGATION OF IRAK4 INHIBITORS WITH E3 LIGASE LIGAND AND METHODS OF USE” (BeiGene, Ltd., priority 2022, published 2025)

How the values were obtained:
IRAK4 [1] = target: T1, IRAK4 (Homo sapiens, UniProt Q9NWZ3); test: IRAK4 Degradation Assay (Karpas299, HTRF/TR-FRET); type: cell-based; conditions: Karpas-299 cells, 24 h treatment; for Dmax: read-out: IRAK4 in Karpas-299 (24 h) Dmax (%); for DC50: read-out: IRAK4 in Karpas-299 (24 h) DC50
T1 construct: endogenous in cells; host or cells: Karpas299
T1 sequence (Q9NWZ3 1-460): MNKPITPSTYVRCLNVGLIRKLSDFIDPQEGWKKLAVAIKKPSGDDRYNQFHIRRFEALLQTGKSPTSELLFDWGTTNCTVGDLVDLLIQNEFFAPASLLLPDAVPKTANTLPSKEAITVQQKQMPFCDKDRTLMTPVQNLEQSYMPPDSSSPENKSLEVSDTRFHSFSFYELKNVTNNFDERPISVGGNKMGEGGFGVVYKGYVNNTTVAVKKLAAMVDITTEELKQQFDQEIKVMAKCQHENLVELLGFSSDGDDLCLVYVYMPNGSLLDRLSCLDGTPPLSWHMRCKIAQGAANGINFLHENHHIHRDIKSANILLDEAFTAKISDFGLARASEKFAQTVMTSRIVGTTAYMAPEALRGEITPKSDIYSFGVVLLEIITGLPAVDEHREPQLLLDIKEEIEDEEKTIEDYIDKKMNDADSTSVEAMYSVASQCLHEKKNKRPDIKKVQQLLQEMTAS
Summary of the method: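 Compound potency as DC50 (IC50) came from four-parameter fits of percent IRAK4 degradation. IRAK4 was measured by HTRF (665/620 nm) in lysates of Karpas299 cells seeded at 0.2 million per well. Cells had been treated with compound dilutions for 5 or 24 h.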

IRAK4 [2] = target: T1, IRAK4; test: IRAK4 Degradation Assay with Human Serum (Karpas299, HTRF/TR-FRET); type: cell-based; conditions: Karpas-299 in human serum, 24 hrs treatment; for DC50: read-out: IRAK4 degradtion with human serum assay DC50; for Dmax: read-out: IRAK4 degradtion with human serum assay Dmax (%)
Summary of the method: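 Remaining IRAK4 measured by TR-FRET immunoassay on lysates of Karpas299 cells exposed 24 h to compound dilution series in human serum AB. DC50 derived from a Hill-slope fit of % degradation versus concentration.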

[3] = maximum percentage of degradation

SMILES | Dmax (IRAK4 [1]; [3]) [%] | DC50 (IRAK4 [1]) [nM] | DC50 (IRAK4 [2]) [nM] | Dmax (IRAK4 [2]) [%] | IRAK4 in Karpas-299 (24 h) Dmax (%) (IRAK4 [1]; [3]) | IRAK4 degradtion with human serum assay Dmax (%) (IRAK4 [2])
CC(C)(O)c1cc2nn([C@H]3CC[C@H](N4CCN(C5CCN(c6ccc7c(c6)CN(C6CCC(=O)NC6=O)C7=O)CC5)CC4)CC3)cc2cc1NC(=O)c1ccc2cc(C#N)cnn12 (some centres unmarked) [Example 417, 3-cyano-N-(2-((1r,4r)-4-(4-(1-(2-(2,6-dioxopiperidin-3-yl)-1-oxoisoindolin-5-yl)piperidin-4-yl)piperazin-1-yl)cyclohexyl)-6-(2-hydroxypropan-2-yl)-2H-indazol-5-yl)pyrrolo[1,2-b]pyridazine-7-carboxamide] | 95 | 0.9 | 4.5 | 95 | – | –
CC(C)(O)C[C@H]1CN(CCc2cc(F)c([C@H]3CCC(=O)NC3=O)c(F)c2)CCN1[C@H]1CC[C@H](n2cc3cc(NC(=O)c4ccc5cc(C#N)cnn45)c(C(C)(C)O)cc3n2)CC1 [Example 369, 3-cyano-N-(2-((1S,4r)-4-((S)-4-(4-((R)-2,6-dioxopiperidin-3-yl)-3,5-difluorophenethyl)-2-(2-hydroxy-2-methylpropyl)piperazin-1-yl)cyclohexyl)-6-(2-hydroxypropan-2-yl)-2H-indazol-5-yl)pyrrolo[1,2-b]pyridazine-7-carboxamide] | 96 | 0.6 | 3 | 97 | – | –
COC[C@H]1CN([C@H]2CC[C@H](n3cc4cc(NC(=O)c5ccc6cc(C#N)cnn56)c(C(C)(C)O)cc4n3)CC2)CCN1C(=O)[C@@H]1CCN(c2cc(F)c(N3CCC(=O)NC3=O)c(F)c2)C1 [Example 316, 3-cyano-N-(2-((1R,4r)-4-((R)-4-((R)-1-(4-(2,4-dioxotetrahydropyrimidin-1(2H)-yl)-3,5-difluorophenyl)pyrrolidine-3-carbonyl)-3-(methoxymethyl)piperazin-1-yl)cyclohexyl)-6-(2-hydroxypropan-2-yl)-2H-indazol-5-yl)pyrrolo[1,2-b]pyridazine-7-carboxamide] | 97 | 1.6 | 35 | 95 | – | –
CC(C)(O)c1cc2nn(C34CC(N5CCN(CCc6cc(F)c([C@H]7CCC(=O)NC7=O)c(F)c6)CC5)(C3)C4)cc2cc1NC(=O)c1ccc2cc(C#N)cnn12 [Example 159, (R)-3-cyano-N-(2-(3-(4-(4-(2,6-dioxopiperidin-3-yl)-3,5-difluorophenethyl)piperazin-1-yl)bicyclo[1.1.1]pentan-1-yl)-6-(2-hydroxypropan-2-yl)-2H-indazol-5-yl)pyrrolo[1,2-b]pyridazine-7-carboxamide] | 95 | 1.5 | 5.2 | 94 | – | –
CC(C)(O)c1cc2nn([C@H]3CC[C@H](N4C[C@@H]5CN(CC6CN(c7cc(F)c(C8CCC(=O)NC8=O)c(F)c7)C6)C[C@H]5C4)CC3)cc2cc1NC(=O)c1ccc2cc(C#N)cnn12 (stereo partly drawn) [Example 359, 3-cyano-N-(2-((1S,4r)-4-((3aS,6aS)-5-((1-(4-((R)-2,6-dioxopiperidin-3-yl)-3,5-difluorophenyl)azetidin-3-yl)methyl)hexahydropyrrolo[3,4-c]pyrrol-2(1H)-yl)cyclohexyl)-6-(2-hydroxypropan-2-yl)-2H-indazol-5-yl)pyrrolo[1,2-b]pyridazine-7-carboxamide] | 97 | 2.4 | 4.2 | 103 | – | –
CC(C)(O)c1cc2nn([C@H]3CC[C@H](N4CCN(C(=O)C5CN(c6ccc(N7CCC(=O)NC7=O)cc6)C5)CC4)CC3)cc2cc1NC(=O)c1ccc2cc(C#N)cnn12 [Example 265, 3-cyano-N-(2-((1r,4r)-4-(4-(1-(4-(2,4-dioxotetrahydropyrimidin-1(2H)-yl)phenyl)azetidine-3-carbonyl)piperazin-1-yl)cyclohexyl)-6-(2-hydroxypropan-2-yl)-2H-indazol-5-yl)pyrrolo[1,2-b]pyridazine-7-carboxamide] | 97 | 2.6 | 21 | 99 | – | –

More lines, in order of falling DC50 (IRAK4 [1]), values ahead:

Dmax (IRAK4 [1]; [3]) [%] | DC50 (IRAK4 [1]) [nM] | DC50 (IRAK4 [2]) [nM] | Dmax (IRAK4 [2]) [%] | IRAK4 in Karpas-299 (24 h) Dmax (%) (IRAK4 [1]; [3]) | IRAK4 degradtion with human serum assay Dmax (%) (IRAK4 [2]) | SMILES
– | 5.5 | 12 | – | 95 | 95 | Cc1nc(C2CCC(=O)NC2=O)ccc1N1CC(N2CCN(C3CCC(n4cc5cc(NC(=O)c6ccc7cc(C#N)cnn67)c(C(C)(C)O)cc5n4)CC3)CC2)C1 (centres unmarked) [Example 426, 3-cyano-N-(2-((1r,4r)-4-(4-(1-(6-(2,6-dioxopiperidin-3-yl)-2-methylpyridin-3-yl)azetidin-3-yl)piperazin-1-yl)cyclohexyl)-6-(2-hydroxypropan-2-yl)-2H-indazol-5-yl)pyrrolo[1,2-b]pyridazine-7-carboxamide]
98 | 3.4 | 16 | 97 | – | – | CC(C)(O)c1cc2nn(C3CCN([C@@H]4CCN(CCc5cc(F)c([C@H]6CCC(=O)NC6=O)c(F)c5)CC4(F)F)CC3)cc2cc1NC(=O)c1ccc2cc(C#N)cnn12 [Example 340, 3-cyano-N-(2-((R)-1′-(4-((R)-2,6-dioxopiperidin-3-yl)-3,5-difluorophenethyl)-3′,3′-difluoro-[1,4′-bipiperidin]-4-yl)-6-(2-hydroxypropan-2-yl)-2H-indazol-5-yl)pyrrolo[1,2-b]pyridazine-7-carboxamide]
96 | 1.7 | 5.1 | 99 | – | – | C[C@H]1CN(CCc2cc(F)c([C@H]3CCC(=O)NC3=O)c(F)c2)CCN1[C@H]1CC[C@H](n2cc3cc(NC(=O)c4ccc5cc(C#N)cnn45)c(C(C)(C)O)cc3n2)CC1 [Example 305, 3-cyano-N-(2-((1S,4r)-4-((S)-4-(4-((R)-2,6-dioxopiperidin-3-yl)-3,5-difluorophenethyl)-2-methylpiperazin-1-yl)cyclohexyl)-6-(2-hydroxypropan-2-yl)-2H-indazol-5-yl)pyrrolo[1,2-b]pyridazine-7-carboxamide]
94 | 1.6 | 8.7 | 95 | – | – | CC(C)(O)c1cc2nn([C@H]3CC[C@H](N4CCN(C[C@@H]5CCN(c6ccc7c(c6)C(=O)N(C6CCC(=O)NC6=O)C7=O)C5)CC4)CC3)cc2cc1NC(=O)c1ccc2cc(C#N)cnn12 (stereo partly drawn) [Example 431, 3-cyano-N-(2-((1S,4r)-4-(4-(((3S)-1-(2-(2,6-dioxopiperidin-3-yl)-1,3-dioxoisoindolin-5-yl)pyrrolidin-3-yl)methyl)piperazin-1-yl)cyclohexyl)-6-(2-hydroxypropan-2-yl)-2H-indazol-5-yl)pyrrolo[1,2-b]pyridazine-7-carboxamide]
96 | 0.7 | 3.5 | 99 | – | – | CC(C)(O)c1cc2nn([C@H]3CC[C@H](N4CCN(CC5CN(c6cc(F)c([C@H]7CCC(=O)NC7=O)c(F)c6)C5)CC4)CC3)cc2cc1NC(=O)c1coc2cccnc12 [Example 403, N-(2-((1r,4r)-4-(4-((1-(4-((R)-2,6-dioxopiperidin-3-yl)-3,5-difluorophenyl)azetidin-3-yl)methyl)piperazin-1-yl)cyclohexyl)-6-(2-hydroxypropan-2-yl)-2H-indazol-5-yl)furo[3,2-b]pyridine-3-carboxamide]
